Test results taken from patent US20240309003A1, “HETEROCYCLIC COMPOUNDS AS TRIGGERING RECEPTOR EXPRESSED ON MYELOID CELLS 2 AGONISTS AND METHODS OF USE” (Vigil Neuroscience, Inc., priority 2021, published 2024).

Biological target: T1, human TREM2 (Homo sapiens, UniProt Q9NZC2)
T1 construct: expressed in transfected cells; host or cells: HEK293T
Assay: TREM2 agonist potency by cellular phosphorylation of Syk (AlphaLisa) in HEK293T-hTREM2 cells
Format: cell-based
Method: In Vitro Measurement of Triggering Receptor Expressed on Myeloid Cells 2 Activity Using Cellular Phosphorylation of Spleen Tyrosine Kinase (“Syk”) Assays
Measurement of TREM2 agonist potency was done using a HEK cell line expressing human TREM2 and DAP12 (HEK293T-hTREM2 cells). Binding of small molecules to, and activation of, TREM2 increases the phosphorylation of Syk. The resultant levels of Syk phosphorylation are measured using a commercial AlphaLisa reagent kit. To perform the assay, HEK-hTREM2 cells were plated at 14,000 cells per well in a 384 well plate, in 25 μL of complete growth media and incubated at 37° C., 5% CO2 for 20-24 hours.
Prior to the assay, test compounds were diluted in the 384 well plates in assay buffer and allowed to equilibrate for 30 minutes. Growth media was removed from cell plates by inversion on blotting paper, and 25 μL of test articles in assay buffer was added to cells. Cells were incubated for 45 minutes at room temperature. After 45 minutes, assay buffer was removed and 10 μL of lysis buffer was added. Plates were shaken for 20 minutes at 350 RPM at room temperature. After complete lysis, AlphaLisa reagents were added to the lysate, and fluourescence intensity was measured using a Perkin Elmer Envision plate reader. Intensities were used to generate a standard curve, and % activation was calculated. Curve fitting was performed using Prism v9 software, log(agonist) vs response-variable slope (four parameters), and EC50s were calculated from the curve fit.
This assay may be used to test any of the compounds described herein to assess and characterize a compound's ability to act as an agonist of TREM2.

[1] = HEK293 cells expressing human TREM2 and DAP12, Table D
[2] = HEK293 cells expressing human TREM2 and DAP12, Table D-2

T1 sequence (Q9NZC2 19-230): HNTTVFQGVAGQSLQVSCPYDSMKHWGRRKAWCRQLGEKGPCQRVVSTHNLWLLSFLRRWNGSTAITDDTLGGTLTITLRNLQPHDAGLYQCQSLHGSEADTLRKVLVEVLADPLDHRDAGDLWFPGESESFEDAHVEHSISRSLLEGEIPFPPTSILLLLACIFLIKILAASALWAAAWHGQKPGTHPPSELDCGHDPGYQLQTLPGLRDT
T1 sequence (O43914 22-113 partner): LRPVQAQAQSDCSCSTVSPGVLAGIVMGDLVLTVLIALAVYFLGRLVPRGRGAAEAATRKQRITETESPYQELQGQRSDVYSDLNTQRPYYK

SMILES	EC50 [1]	EC50 [2]
COc1cccc([C@H]2C[C@@H](c3nc(-c4ccc(F)cc4F)c4nc(C)c(C)nc4n3)CCO2)n1 [Example 165, 4-(2,4-difluorophenyl)-2-((2R,4S)-2-(6-methoxypyridin-2-yl)tetrahydro-2H-pyran-4-yl)-6,7-dimethylpteridine]	50 to 500 nM	
[2H]C1([2H])C[C@H](c2nc(-c3ccc(F)cc3F)c3nc(C)c(C)nc3n2)C[C@H](c2cnn(C3CC3)c2)O1 [Example 171, 2-((2R,4S)-2-(1-cyclopropyl-1H-pyrazol-4-yl)tetrahydro-2H-pyran-4-yl-6,6-d2)-4-(2,4-difluorophenyl)-6,7-dimethylpteridine]	50 to 500 nM	
Cc1ccc(-c2nc(N3C[C@@H](C)O[C@@H](c4cnn(C5CC5)c4)C3)nc3nc(C)c(C)nc23)s1 [Example 244, (2S,6R)-2-(1-cyclopropyl-1H-pyrazol-4-yl)-4-(6,7-dimethyl-4-(5-methylthiophen-2-yl)pteridin-2-yl)-6-methylmorpholine]	50 to 500 nM	
Cc1cc([C@H]2C[C@@H](c3nc(-c4cc(F)c(Cl)c(F)c4)c4nc(C)c(C)nc4n3)CCO2)ccn1 [Example 133, 4-(4-chloro-3,5-difluorophenyl)-6,7-dimethyl-2-((2R,4S)-2-(2-methylpyridin-4-yl)tetrahydro-2H-pyran-4-yl)pteridine]	< 50 nM	
Cc1cc([C@H]2C[C@@H](c3cc(-c4ccc(Cl)c(F)c4F)c4cc(C)c(C)nc4n3)CCO2)ccn1 [Example 186, 5-(4-chloro-2,3-difluorophenyl)-2,3-dimethyl-7-((2R,4S)-2-(2-methylpyridin-4-yl)tetrahydro-2H-pyran-4-yl)-1,8-naphthyridine]	500 to 3000 nM	
[2H]C([2H])([2H])c1nc2nc([C@H]3CCO[C@@H](c4cnn(C([2H])([2H])[2H])c4)C3)nc(-c3ccc(C)cc3)c2nc1C([2H])([2H])[2H] [Example 173, 6,7-bis(methyl-d3)-2-((2R,4S)-2-(1-(methyl-d3)-1H-pyrazol-4-yl)tetrahydro-2H-pyran-4-yl)-4-(p-tolyl)pteridine]	50 to 500 nM	
[2H]C1([2H])C[C@@H](c2nc(-c3ccc(F)cc3F)c3nc(C)c(C)nc3n2)C[C@@]([2H])(c2cnn(C3CC3)c2)O1 (single isomer, unassigned) [Example 191]	3000 to 100000 nM	
Cc1nc2nc(N3C[C@@H](C)O[C@@H](c4cnn(C5CC5)c4)C3)nc(-c3ccnn3C)c2nc1C [Example 241, (2S,6R)-2-(1-cyclopropyl-1H-pyrazol-4-yl)-4-(6,7-dimethyl-4-(1-methyl-1H-pyrazol-5-yl)pteridin-2-yl)-6-methylmorpholine]	50 to 500 nM	
Cc1cc2c(-c3ccc(Cl)cc3F)nc([C@@H]3CCO[C@@H](c4cnn(C5CC5)c4)C3)nc2nc1C [Example 216, 4-(4-chloro-2-fluorophenyl)-2-((2R,4R)-2-(1-cyclopropyl-1H-pyrazol-4-yl)tetrahydro-2H-pyran-4-yl)-6,7-dimethylpyrido[2,3-d]pyrimidine]	< 50 nM	
Cc1nc2nc(-c3ccc(Cl)cc3F)cc([C@H]3CCO[C@@H](c4cnn(C5CC5)c4)C3)c2nc1C [Example 237, 6-(4-chloro-2-fluorophenyl)-8-((2R,4S)-2-(1-cyclopropyl-1H-pyrazol-4-yl)tetrahydro-2H-pyran-4-yl)-2,3-dimethylpyrido[2,3-b]pyrazine]	< 50 nM	
Cc1ccc2c(C34CC(C(F)(F)F)(C3)C4)nc([C@H]3C[C@@H](C)O[C@@H](c4cnn(C5CC5)c4)C3)nc2n1 [Example 220, 2-((2R,4S,6R)-2-(1-cyclopropyl-1H-pyrazol-4-yl)-6-methyltetrahydro-2H-pyran-4-yl)-7-methyl-4-(3-(trifluoromethyl)bicyclo[1.1.1]pentan-1-yl)pyrido[2,3-d]pyrimidine]	500 to 3000 nM	
COc1ncccc1[C@H]1C[C@@H](c2nc(C34CC(C(F)(F)F)(C3)C4)c3nc(C)c(C)nc3n2)CCO1 [Example 144, 2-((2R,4S)-2-(2-methoxypyridin-3-yl)tetrahydro-2H-pyran-4-yl)-6,7-dimethyl-4-(3-(trifluoromethyl)bicyclo[1.1.1]pentan-1-yl)pteridine]	50 to 500 nM	
[2H]C1([2H])C[C@H](c2nc(-c3ccc(Cl)cc3F)c3nc(C)c(C)nc3n2)C[C@H](c2cnn(C3CC3)c2)O1 [Example 188, 4-(4-chloro-2-fluorophenyl)-2-((2R,4S)-2-(1-cyclopropyl-1H-pyrazol-4-yl)tetrahydro-2H-pyran-4-yl-6,6-d2)-6,7-dimethylpteridine]	< 50 nM	

Next, values leading:

EC50 [1]	EC50 [2]	SMILES
	< 50 nM	Cc1nc2nc(N3C[C@@H](C)O[C@@H](c4cnn(C5CC5)c4)C3)nc(-c3ccc4c(c3F)CCC4(F)F)c2nc1C [Example I-1485, (2S,6R)-2-(1-cyclopropylpyrazol-4-yl)-4-[6,7-dimethyl-4-(1,1,4-trifluoroindan-5-yl)pteridin-2-yl]-6-methyl-morpholine]
	< 50 nM	COCn1cc([C@H]2CN(c3nc(-c4ccc(F)cc4F)c4cc(C)c(C)nc4n3)C[C@@H](C)O2)cn1 [Example I-1226, (2S,6R)-4-[4-(2,4-difluorophenyl)-6,7-dimethyl-pyrido[2,3-d]pyrimidin-2-yl]-2-[1-(methoxymethyl)pyrazol-4-yl]-6-methyl-morpholine]
	50 to 500 nM	Cc1cc(N2C[C@@H](c3nc(-c4ccc(F)cc4F)c4nc(C)c(C)nc4n3)CCC2=O)ccn1 [Example I-1513]
	500 to 3000 nM	Cc1nc2nc(N3CCCO[C@H](c4cnn(C5CC5)c4)C3)nc(-c3ccc(F)cc3F)c2nc1C (stereo in doubt) [Example I-1144, 2-(1-cyclopropyl-1H-pyrazol-4-yl)-4-(4-(2,4-difluorophenyl)-6,7-dimethylpteridin-2-yl)-1,4-oxazepane]
	< 50 nM	Cc1nc2nc(N3C[C@@H](C)O[C@@H](c4cnn(C5CC5)c4)C3)nc(-c3cc(C(F)F)c(F)cc3F)c2nc1C (stereo in doubt) [Example I-1706, (2S,6R)-2-(1-cyclopropylpyrazol-4-yl)-4-[4-[5-(difluoromethyl)-2,4-difluoro-phenyl]-6,7-dimethyl-pteridin-2-yl]-6-methyl-morpholine]
	500 to 3000 nM	Cc1nc2cc([C@H]3CCO[C@@H](c4cnn(C5CC5)c4)C3)nc(-c3ccc(F)cc3F)c2nc1COCC1COC1 [Example I-1505, 7-((2R,4S)-2-(1-cyclopropyl-1H-pyrazol-4-yl)tetrahydro-2H-pyran-4-yl)-5-(2,4-difluorophenyl)-2-methyl-3-((oxetan-3-ylmethoxy)methyl)pyrido[3,4-b]pyrazine]
	< 50 nM	CCCc1nc2c(-c3ccc(F)cc3F)nc(N3C[C@@H](C)O[C@@H](c4cnn(C5CC5)c4)C3)nc2nc1C [Example I-1293]
	< 50 nM	Cc1nc2nc(N3C[C@@H](C)O[C@@H](c4cnn(C)c4)C3)nc(-c3ccc(F)cc3F)c2nc1C [Example I-1633]
	3000 to 100000 nM	Cc1nc2nc(N3C[C@H](CO)O[C@H](c4cnn(C5CC5)c4)C3)nc(-c3ccc(F)cc3F)c2nc1C [Example I-1334, [(2R,6R)-6-(1-cyclopropylpyrazol-4-yl)-4-[4-(2,4-difluorophenyl)-6,7-dimethyl-pteridin-2-yl]morpholin-2-yl]methanol]
	< 50 nM	Cc1nc2nc(N3C[C@@H](C)O[C@@H](c4cnn(C5CC5)c4)C3)nc(-c3cc(F)c(C(F)(F)F)cc3F)c2nc1C [Example I-1538, (2S,6R)-2-(1-cyclopropylpyrazol-4-yl)-4-[4-[2,5-difluoro-4-(trifluoromethyl)phenyl]-6,7-dimethyl-pteridin-2-yl]-6-methyl-morpholine]
